Source: PubChem BioAssay AID330 (DTP/NCI, 2004)
“And” between values parts separate entries of the source, which are not always exact repeats. Equal entries are not always repeated. Toxic doses and inconclusive results are not listed. Peptide text beside a SMILES is read from it. * marks the point of attachment. Cbz = O=C(OCc1ccccc1)*; Bn = c1ccc(C*)cc1

Test system: P388 leukemia ip, CD2F1 mice, survival T/C
Test: NCI In Vivo Anticancer Drug Screen. Data for tumor model P388 Leukemia (intraperitoneal) in CD2F1 (CDF1) mice
Conditions: endpoint: median survival time, higher = longer survival
Outline: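 Mice carrying the transplanted tumor received test compound or vehicle. Survival was recorded in each group, and the value is the treated-group measurement divided by that of the vehicle-treated control group.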

[1] = dose: 60.0 mg/kg/injection, schedule: Q01DX005 (ip), vehicle: saline with Tween-80
[2] = dose: 120.0 mg/kg/injection, schedule: Q01DX005 (ip), vehicle: saline with Tween-80
[3] = dose: 240.0 mg/kg/injection, schedule: Q01DX005 (ip), vehicle: saline with Tween-80
[4] = dose: 50.0 mg/kg/injection, schedule: Q01DX005 (ip), vehicle: Klucel (hydroxypropylcellulose) (HPC)
[5] = dose: 100.0 mg/kg/injection, schedule: Q01DX005 (ip), vehicle: Klucel (hydroxypropylcellulose) (HPC)
[6] = dose: 60.0 mg/kg/injection, schedule: Q01DX005 (ip), vehicle: saline
[7] = dose: 200.0 mg/kg/injection, schedule: Q01DX005 (ip), vehicle: Klucel (hydroxypropylcellulose) (HPC)
[8] = dose: 50.0 mg/kg/injection, schedule: Q01DX005 (ip), vehicle: saline with Tween-80
[9] = dose: 100.0 mg/kg/injection, schedule: Q01DX005 (ip), vehicle: saline with Tween-80
[10] = dose: 200.0 mg/kg/injection, schedule: Q01DX005 (ip), vehicle: saline with Tween-80
[11] = dose: 50.0 mg/kg/injection, schedule: Q01DX009 (ip), vehicle: Klucel (hydroxypropylcellulose) (HPC)
[12] = dose: 100.0 mg/kg/injection, schedule: Q01DX009 (ip), vehicle: Klucel (hydroxypropylcellulose) (HPC)
[13] = dose: 200.0 mg/kg/injection, schedule: Q01DX009 (ip), vehicle: Klucel (hydroxypropylcellulose) (HPC)

CC(C)(C)c1cc(/C=N/NC(=O)CC2CCCCC2)cc(C(C)(C)C)c1O
T/C [1]: 96 % of control | T/C [2]: 100 % of control | T/C [3]: 87 % of control

OC(CN1CCCC2CCCCC21)c1cc2ccccc2c2ccccc12 (stereo unspecified)
T/C (dose: 100.0 mg/kg/injection, schedule: Q01DX009 (ip), vehicle: saline with Tween-80): 108 % of control | T/C (dose: 200.0 mg/kg/injection, schedule: Q01DX009 (ip), vehicle: saline with Tween-80): 104 % of control

COc1c(OCC(O)CN2CCCCC2)c2c(C)coc2c2ccoc12 (stereo unspecified)
T/C [4]: 100 % of control | T/C [5]: 96 % of control

CC1=Nc2cccnc2N(C)N1C
T/C (dose: 15.0 mg/kg/injection, schedule: Q01DX005 (ip), vehicle: saline): 94 % of control | T/C (dose: 30.0 mg/kg/injection, schedule: Q01DX005 (ip), vehicle: saline): 98 % of control | T/C [6]: 98 % of control and 106 % of control

COC(=O)/C=C1\CC(C)C2=C(N1)SCC2=O (stereo unspecified)
T/C [4]: 105 % of control | T/C [5]: 105 % of control | T/C [7]: 100 % of control

C1COCCCOCCCOCCCC2(CCCOCCCOC1)OCCO2
T/C [8]: 102 % of control | T/C [9]: 102 % of control | T/C [10]: 101 % of control

CCCc1nc(N)[nH]c(=O)c1CCCCc1ccccc1
T/C [1]: 90 % of control and 96 % of control | T/C [2]: 88 % of control and 103 % of control | T/C [3]: 96 % of control and 87 % of control

CCN(CC)CCOC(=O)/C=C/c1ccccc1
T/C [6]: 106 % of control | T/C (dose: 120.0 mg/kg/injection, schedule: Q01DX005 (ip), vehicle: saline): 107 % of control | T/C (dose: 240.0 mg/kg/injection, schedule: Q01DX005 (ip), vehicle: saline): 102 % of control

C[C@H](N)C(O)/C=C/c1ccccc1 (stereo partly specified)
T/C (dose: 10.0 mg/kg/injection, schedule: Q01DX005 (ip), vehicle: saline): 103 % of control | T/C (dose: 20.0 mg/kg/injection, schedule: Q01DX005 (ip), vehicle: saline): 93 % of control | T/C (dose: 40.0 mg/kg/injection, schedule: Q01DX005 (ip), vehicle: saline): 97 % of control

COc1cccc2c(NCCCCCCCCNc3c4ccc([N+](=O)[O-])cc4nc4c(OC)cccc34)c3ccc([N+](=O)[O-])cc3nc12
T/C (dose: 2.5 mg/kg/injection, schedule: Q01DX009 (ip), vehicle: other): 157 % of control | T/C (dose: 5.0 mg/kg/injection, schedule: Q01DX009 (ip), vehicle: other): 152 % of control | T/C (dose: 10.0 mg/kg/injection, schedule: Q01DX009 (ip), vehicle: other): 158 % of control and 172 % of control | T/C (dose: 20.0 mg/kg/injection, schedule: Q01DX009 (ip), vehicle: other): 170 % of control | T/C (dose: 40.0 mg/kg/injection, schedule: Q01DX009 (ip), vehicle: other): 166 % of control

COC(=O)C(C)NC(=O)C(Cc1c[nH]c2ccccc12)NC(=O)OC(C)(C)C (stereo unspecified)
T/C (dose: 12.5 mg/kg/injection, schedule: Q01DX009 (ip), vehicle: other): 88 % of control | T/C (dose: 25.0 mg/kg/injection, schedule: Q01DX009 (ip), vehicle: other): 89 % of control | T/C (dose: 50.0 mg/kg/injection, schedule: Q01DX009 (ip), vehicle: other): 100 % of control | T/C (dose: 100.0 mg/kg/injection, schedule: Q01DX009 (ip), vehicle: other): 101 % of control | T/C (dose: 200.0 mg/kg/injection, schedule: Q01DX009 (ip), vehicle: other): 117 % of control

NC(Cc1ccc(O)cc1)C(=O)N/N=C/c1cccc2ccccc12 (stereo unspecified)
T/C [8]: 92 % of control | T/C [9]: 90 % of control | T/C [10]: 89 % of control

CCCCNc1ncc(S(=O)(=O)Cc2ccc3c(c2)OCO3)c(N)n1
T/C (dose: 100.0 mg/kg/injection, schedule: Q04DX002 (ip), vehicle: saline): 94 % of control | T/C (dose: 200.0 mg/kg/injection, schedule: Q04DX002 (ip), vehicle: saline): 100 % of control | T/C (dose: 400.0 mg/kg/injection, schedule: Q04DX002 (ip), vehicle: saline): 90 % of control

CC(=O)Oc1cc(C)c(OC(C)=O)c(OC(C)=O)c1C
T/C (dose: 100.0 mg/kg/injection, schedule: Q04DX002 (ip), vehicle: Klucel (hydroxypropylcellulose) (HPC)): 102 % of control | T/C (dose: 200.0 mg/kg/injection, schedule: Q04DX002 (ip), vehicle: Klucel (hydroxypropylcellulose) (HPC)): 90 % of control

CCCCCCCCCCCCCCCCCC(=O)NC1c2ccccc2Oc2ccccc21
T/C [8]: 87 % of control | T/C [9]: 90 % of control | T/C [10]: 92 % of control

COC(=O)C(CSCc1ccccc1)NC(=O)C(CC(N)=O)NC(=O)OCc1ccccc1 (stereo not drawn) (Cbz-Asn-Cys(Bn)-OMe; configuration not given here)
T/C (dose: 12.5 mg/kg/injection, schedule: Q01DX009 (ip), vehicle: distilled water + Tween-80): 88 % of control | T/C (dose: 25.0 mg/kg/injection, schedule: Q01DX009 (ip), vehicle: distilled water + Tween-80): 88 % of control | T/C (dose: 50.0 mg/kg/injection, schedule: Q01DX009 (ip), vehicle: distilled water + Tween-80): 91 % of control | T/C (dose: 100.0 mg/kg/injection, schedule: Q01DX009 (ip), vehicle: distilled water + Tween-80): 92 % of control | T/C (dose: 200.0 mg/kg/injection, schedule: Q01DX009 (ip), vehicle: distilled water + Tween-80): 103 % of control

CN(C)C(=O)N1CCc2ccc([N+](=O)[O-])cc21
T/C [11]: 104 % of control | T/C [12]: 100 % of control | T/C [13]: 98 % of control

COC(=O)CC[C@@H]1C(C)=CC(=O)[C@@]2(F)[C@H]1CCC1=CC(=O)C=C[C@@]12C
T/C [4]: 108 % of control | T/C [5]: 100 % of control | T/C [7]: 109 % of control

CN(Cc1cnc2nc(N)[nH]c(=O)c2c1)c1ccc(C(=O)NC(CCC(=O)O)C(=O)O)cc1 (stereo unspecified)
T/C [8]: 98 % of control | T/C [9]: 100 % of control | T/C [10]: 111 % of control

CC1CC(C)NC(C)C1 (stereo unspecified)
T/C (dose: 12.5 mg/kg/injection, schedule: Q01DX009 (ip), vehicle: saline): 86 % of control | T/C (dose: 25.0 mg/kg/injection, schedule: Q01DX009 (ip), vehicle: saline): 103 % of control | T/C (dose: 50.0 mg/kg/injection, schedule: Q01DX009 (ip), vehicle: saline): 97 % of control | T/C (dose: 100.0 mg/kg/injection, schedule: Q01DX009 (ip), vehicle: saline): 93 % of control

CC1CC(=O)c2cc(-c3ccccc3)oc2C1 (stereo unspecified)
T/C [11]: 115 % of control | T/C [12]: 102 % of control | T/C [13]: 97 % of control

CCNC(=O)OCc1c(COC(=O)NCC)c(-c2ccc(F)cc2)n2c1CCC2
T/C (dose: 3.13 mg/kg/injection, schedule: Q01DX009 (ip), vehicle: distilled water + Tween-80): 123 % of control

CCOC(=O)/C(C#N)=C(O)\C(=C\c1ccc(Cl)cc1)NC(=O)c1ccc(NC(C)=O)cc1
T/C [1]: 108 % of control | T/C [2]: 97 % of control | T/C [3]: 97 % of control

Cc1ccc2ccc3ccc(C)nc3c2n1.O=[N+]([O-])O.O=[N+]([O-])O.[Cu]
T/C (dose: 6.25 mg/kg/injection, schedule: Q04DX002 (ip), vehicle: saline): 109 % of control | T/C (dose: 12.5 mg/kg/injection, schedule: Q04DX002 (ip), vehicle: saline): 113 % of control

O=C1NC(CN2CCCCC2)C(=O)NC1CN1CCCCC1 (stereo unspecified)
T/C (dose: 60.0 mg/kg/injection, schedule: Q01DX005 (ip), vehicle: Klucel (hydroxypropylcellulose) (HPC)): 89 % of control | T/C (dose: 120.0 mg/kg/injection, schedule: Q01DX005 (ip), vehicle: Klucel (hydroxypropylcellulose) (HPC)): 92 % of control

O=C(NCCN1CCC(n2c(=O)[nH]c3cc(Cl)ccc32)CC1)c1ccc(F)cc1
T/C [8]: 95 % of control | T/C [9]: 88 % of control | T/C [10]: 90 % of control

CCCC(=O)c1ccco1
T/C (dose: 6.25 mg/kg/injection, schedule: Q01DX009 (ip), vehicle: saline with Tween-80): 88 % of control | T/C (dose: 12.5 mg/kg/injection, schedule: Q01DX009 (ip), vehicle: saline with Tween-80): 95 % of control | T/C (dose: 25.0 mg/kg/injection, schedule: Q01DX009 (ip), vehicle: saline with Tween-80): 95 % of control
